# Assay results taken from patent US10034915B2, “Small heat shock proteins and active fragments thereof as a therapy for inflammation and ischemia” (The Board of Trustees of the Leland Stanford Junior …, priority 2011, dated 2018).
# “Also recorded” adds a separate entry of the source.
# Tests used:
# [1] = system: partially denatured proteins; details: in vitro, literature; cited from earlier work
# [2] = system: pro-inflammatory cytokines of MOG stimulated splenocytes; assay: Peripheral immune cell activation: cytokine production by MOG stimulated splenocytes of treated MOG immunized mice (ELISA); design: species or system mouse; details: mice treated in vivo; splenocytes from MOG immunized mice
# Description: Peripheral immune cell activation and cytokine analysis. Spleens and lymph nodes were isolated from mice 9 days after immunization with MOG35-55 and CFA. Spleens were mechanically disrupted to isolate single cell splencytes suspension. Cells were cultured in flat bottomed, 96-well plates in media (RPMI 1640 supplemented with […] L-glutamine, 1 mM sodium pyruvate, 0.1 mM non-essential amino acids, 100 U/mL penicillin, 0.1 mg/mL streptomycin, 0.5 uM 2-mercaptoethanol, and 10% fetal calf serum). Cells were stimulated with MOG35-55 (5 ug/mL, 10 ug/mL, and 20 ug/mL). For all activation assays, splenocytes were pooled from three mice per group and triplicate wells were plated. Supernatants of cells were collected at the time of peak production for each cytokine (48 hrs: IL-2, IL-12p40, IL-6; 72 hrs: TNFα and IFNγ; 96 hrs: IL-17; 120 hrs: IL-10). Cytokines were measured in the supernatants using anti-mouse OPTEIA ELISA kits (BD Pharmingen for IFNγ, IL-10, IL-2, IL-6, and IL-12p40; R&D Systems for IL-17 and TNFα).
# EAE mice [3] = assay: EAE in 129Sv WT mice immunized with MOG35-55/CFA, clinical scoring; type: in vivo, mouse; details: prevention paradigm
# EAE mice [4] = assay: as above; type: in vivo, mouse; details: peptide every other day from peak of disease (10 μg, or 1 μg equimolar to 10 μg protein)
# Description: To investigate if the therapeutic efficacy of HSPB5 is a common feature of the whole family of small heat shock proteins, we expressed recombinant HSPB1, HSPB4, and HSPB5. We then treated EAE mice every other day starting at the peak of disease, when clinical paralysis is apparent, with an intraperitoneal (IP) administration of 10 μg of either HSPB1, HSPB4, HSPB5, or PBS as the vehicle control. […] Treating mice in vivo with HSPB1, HSPB4, or HSPB5 led to a reduction in the production of pro-inflammatory cytokines by MOG stimulated splenocytes taken from MOG immunized mice (FIG. 1c). Improvement of the clinical score was dependent on continued dosing of the sHSP. After dosing was stopped, symptoms returned, and paralysis worsened after 96 hours.
# Therapeutic Peptides from HSPB5 in EAE. […] We made a series of overlapping, 15-mer peptide fragments of HSPB5 and treated mice at the peak of disease with 10 μg of each peptide every other day, using HSPB5 as a positive control and PBS as a negative control.
# EAE induction and scoring. Mice were immunized subcutaneously with 100 μL of myelin oligodendrocyte glycoprotein (MOG) peptide 35-55 (2 mg/mL) and Complete Freund's adjuvant (CFA) (4 mg/mL) on Day 0. […] Mice were randomized at the peak of disease into the treatment groups where they received 10 ug/200 μL of sHSP, 1 μg/200 uL of sHSP peptide, or 200 μL of PBS (vehicle) every other day. Mice were scored every day on a clinical scoring system: 0, healthy mouse; 1, limp tail; 2, weak hindlimbs; 3, complete hindlimb paralysis; 4, weak forelimbs and paralyzed hindlimbs; 5, dead.
# HSPB5−/− EAE mice = assay: EAE in 129Sv HSPB5−/− mice immunized with MOG35-55/CFA; type: in vivo, mouse
# Description: Efficacy of HSPB5 73-92 in EAE in HSPB5 deficient mice. We tested whether HSPB5 73-92 alone was sufficient to rescue EAE in alpha B crystallin deficient (HSPB5−/−) mice.
# EAE induction and scoring. Mice were immunized subcutaneously with 100 μL of myelin oligodendrocyte glycoprotein (MOG) peptide 35-55 (2 mg/mL) and Complete Freund's adjuvant (CFA) (4 mg/mL) on Day 0. […] […] Mice were scored every day on a clinical scoring system: 0, healthy mouse; 1, limp tail; 2, weak hindlimbs; 3, complete hindlimb paralysis; 4, weak forelimbs and paralyzed hindlimbs; 5, dead.
sequence,measurement,setting,value
DRFSVNLDVKHFSPEELKVK [HSPB5 73-92],molecular chaperone activity,[1],important for molecular chaperone activity
same,production of pro-inflammatory cytokines by MOG stimulated splenocytes,[2],decrease peripheral immune activation
same,disease severity,EAE mice [3]; 10 μg peptide every day from Day 0,ameliorated EAE
same,disease severity,"EAE mice [3]; 10 μg peptide every day from Day 0, listed as B5 73-92",lower disease severity
same,onset of disease,EAE mice [3]; treatment from Day 0,delayed onset of disease
same,therapeutic efficacy of peptide in EAE (clinical scores),EAE mice [4],comparably therapeutic; also recorded: as therapeutic as HSPB5 71-85
same,disease scores,HSPB5−/− EAE mice; 10 ug peptide every other day from peak of disease,lower disease scores; also recorded: sufficient to ameliorate disease
same,"incidence of disease, Day 11",HSPB5−/− EAE mice; treatment from Day 0,0%
same,"incidence of disease, Day 12",HSPB5−/− EAE mice; treatment from Day 0,0%
same,"incidence of disease, Day 13",HSPB5−/− EAE mice; treatment from Day 0,11%
same,"incidence of disease, Day 14",HSPB5−/− EAE mice; treatment from Day 0,33%
same,"incidence of disease, Day 15",HSPB5−/− EAE mice; treatment from Day 0,33%
same,"incidence of disease, Day 16",HSPB5−/− EAE mice; treatment from Day 0,33%
same,"incidence of disease, Day 17",HSPB5−/− EAE mice; treatment from Day 0,66%
same,"incidence of disease, Day 18",HSPB5−/− EAE mice; treatment from Day 0,66%
same,EAE clinical scores,"HSPB5−/− EAE mice; treatment from Day 0, vs PBS",ameliorated EAE
same,onset of disease,"HSPB5−/− EAE mice; treatment from Day 0, vs PBS",delayed onset of disease
same,EAE clinical scores,"HSPB5−/− EAE mice; treatment from Day 0, vs PBS, listed as B5 73-92",lower EAE clinical scores
